Laboratory results: PubChem BioAssay (NCI)
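Where inhibition never reached the appropriate level, the endpoint shown equals the highest concentration tested. Otherwise, values were interpolated linearly from a five-concentration, 48-hour dose response in 96-well plates. TGI: concentration producing complete growth inhibition.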

Key:
Test in all cases: NCI tumour cell line growth inhibition, 48 h
NCI-H226 lung = test system: NCI-H226 lung
U251 CNS = test system: U251 CNS
SW-620 colon = test system: SW-620 colon
MOLT-4 leukemia = test system: MOLT-4 leukemia
A498 renal = test system: A498 renal
HS 578T breast = test system: HS 578T breast
T-47D breast = test system: T-47D breast
SF-268 CNS = test system: SF-268 CNS
NCI-H522 lung = test system: NCI-H522 lung
HCC-2998 colon = test system: HCC-2998 colon
MDA-MB-231 breast = test system: MDA-MB-231 breast
RPMI-8226 leukemia = test system: RPMI-8226 leukemia
HOP-92 NSCLC = test system: HOP-92 NSCLC
HCT-15 colon = test system: HCT-15 colon
HOP-62 NSCLC = test system: HOP-62 NSCLC
MCF7 breast = test system: MCF7 breast
BT-549 breast = test system: BT-549 breast
EKVX NSCLC = test system: EKVX NSCLC
SN12C renal = test system: SN12C renal
SK-MEL-2 melanoma = test system: SK-MEL-2 melanoma
SF-539 CNS = test system: SF-539 CNS
UO-31 renal = test system: UO-31 renal
HL-60(TB) leukemia = test system: HL-60(TB) leukemia
ACHN renal = test system: ACHN renal
COLO 205 colon = test system: COLO 205 colon
CAKI-1 renal = test system: CAKI-1 renal
SK-OV-3 ovarian = test system: SK-OV-3 ovarian
786-0 renal = test system: 786-0 renal
MALME-3M melanoma = test system: MALME-3M melanoma
UACC-62 melanoma = test system: UACC-62 melanoma
NCI/ADR-RES ovarian = test system: NCI/ADR-RES ovarian
RXF 393 renal = test system: RXF 393 renal
IGROV1 ovarian = test system: IGROV1 ovarian
SK-MEL-5 melanoma = test system: SK-MEL-5 melanoma
SK-MEL-28 melanoma = test system: SK-MEL-28 melanoma
SR leukemia = test system: SR leukemia
OVCAR-4 ovarian = test system: OVCAR-4 ovarian
A549 NSCLC = test system: A549 NSCLC
SF-295 CNS = test system: SF-295 CNS
M14 melanoma = test system: M14 melanoma
NCI-H460 lung = test system: NCI-H460 lung
OVCAR-5 ovarian = test system: OVCAR-5 ovarian
HT29 colon = test system: HT29 colon
UACC-257 melanoma = test system: UACC-257 melanoma
HCT-116 colon = test system: HCT-116 colon
LOX IMVI melanoma = test system: LOX IMVI melanoma
OVCAR-8 ovarian = test system: OVCAR-8 ovarian
NCI-H23 lung = test system: NCI-H23 lung
MDA-N = test system: MDA-N
SNB-75 CNS = test system: SNB-75 CNS
TK-10 renal = test system: TK-10 renal
MDA-MB-435 = test system: MDA-MB-435
KM12 colon = test system: KM12 colon
K-562 leukemia = test system: K-562 leukemia
SNB-19 CNS = test system: SNB-19 CNS

With `COC(=O)C1=C(O)C(C(=O)OC)[C@]2(O)[C@H](C(=O)OC)[C@H]1C[C@@H](c1cccc(OC)c1)[C@H]2C(=O)OC` (stereo not given in full) the TGI (NCI-H226 lung) was > 100 µM, the TGI (U251 CNS) was 68.7 µM and the TGI (SW-620 colon) was > 100 µM. The TGI (MOLT-4 leukemia) was > 100 µM, the TGI (A498 renal) was 55.9 µM and the TGI (HS 578T breast) was 55 µM. The TGI (T-47D breast) was > 100 µM, the TGI (SF-268 CNS) was > 100 µM and the TGI (NCI-H522 lung) was 33.3 µM. The TGI (HCC-2998 colon) was 42.7 µM, the TGI (MDA-MB-231 breast) was 78.3 µM and the TGI (RPMI-8226 leukemia) was > 100 µM. For the same molecule, the TGI (HOP-92 NSCLC) was > 100 µM, the TGI (HCT-15 colon) was 86.3 µM and the TGI (HOP-62 NSCLC) was 89.5 µM. The TGI (MCF7 breast) was > 100 µM, the TGI (BT-549 breast) was > 100 µM and the TGI (EKVX NSCLC) was > 100 µM. The TGI (SN12C renal) was 65.7 µM, the TGI (SK-MEL-2 melanoma) was 44.5 µM and the TGI (SF-539 CNS) was > 100 µM. The TGI (UO-31 renal) was 34.7 µM, the TGI (HL-60(TB) leukemia) was > 100 µM and the TGI (ACHN renal) was 40.4 µM. The TGI (COLO 205 colon) was > 100 µM, the TGI (CAKI-1 renal) was 73.3 µM and the TGI (SK-OV-3 ovarian) was 66.6 µM. The TGI (786-0 renal) was 56.1 µM, the TGI (MALME-3M melanoma) was > 100 µM and the TGI (UACC-62 melanoma) was 35.1 µM. For the same molecule, the TGI (NCI/ADR-RES ovarian) was > 100 µM, the TGI (RXF 393 renal) was 43.1 µM and the TGI (IGROV1 ovarian) was > 100 µM. For the same molecule, the TGI (SK-MEL-5 melanoma) was > 100 µM, the TGI (SK-MEL-28 melanoma) was > 100 µM and the TGI (SR leukemia) was > 100 µM. The TGI (OVCAR-4 ovarian) was 96.4 µM, the TGI (A549 NSCLC) was 75.3 µM and the TGI (SF-295 CNS) was > 100 µM. For the same molecule, the TGI (M14 melanoma) was > 100 µM, the TGI (NCI-H460 lung) was 65.7 µM and the TGI (OVCAR-5 ovarian) was 66.4 µM. For the same molecule, the TGI (HT29 colon) was > 100 µM, the TGI (UACC-257 melanoma) was > 100 µM and the TGI (HCT-116 colon) was 65.6 µM. The TGI (LOX IMVI melanoma) was > 100 µM, the TGI (OVCAR-8 ovarian) was > 100 µM and the TGI (NCI-H23 lung) was > 100 µM. The TGI (MDA-N) was 64.4 µM, the TGI (SNB-75 CNS) was > 100 µM and the TGI (TK-10 renal) was > 100 µM. The TGI (MDA-MB-435) was 55.2 µM, the TGI (KM12 colon) was 69.8 µM and the TGI (K-562 leukemia) was > 100 µM. The TGI (SNB-19 CNS) was 81.7 µM.
